# Read-outs that look alike come from different tables or passages of the source.
# What was measured:
# [1] = test system: rat smooth muscle cells (RSMCs); assay: cells
# Description: Rat smooth muscle cells were cultured in DMED:F12 (Lonza, Besel, Switzerland) containing 10% fetal bovine serum, 1% penicillin/streptomycin solution (GA-1000; Lonza, Basel, Switzerland), and 1% stable glutamine (Wako, Tokyo, Japan) at 37 °C in a 5% CO2 incubator. The medium was changed every three days. Once the adherent cells reached 70–80% subconfluence, they were detached from the dish using Accutase (Nacalai Tesque, Kyoto, Japan). The cell suspension was diluted with DMED:F12 (+FBS) and adjusted to a concentration of 5 × 10^4 cells/mL, and then 100 μL of the suspension was seeded into each well of a 96-well dish (Nunc™ MicroWell™ 96-Well, Nunclon Delta-Treated, Flat-Bottom Microplate, Thermo Fisher, Waltham, MA, USA) and incubated for two days at 37 °C in a 5% CO2 incubator. Passage 6 smooth muscle cells were used, and five 96-well plates were prepared.
# (§1) IC50 is the drug concentration at which half of the cells undergo cell death; it serves as an indicator of cellular toxicity. […] IC50 values were measured using the GloMax® Navigator System (Promega, Madison, WI, USA). The test compounds were diluted in the culture medium and stored in an incubator until use. […] For each test compound, a control and 11 different concentrations were prepared, and the cytotoxicity after the addition of the compounds was examined. The RealTime-GloTM MT Cell Viability Assay kit (Promega, cat#G9711, USA) was used, and the substrate and Nano-luc were added to the medium in each well of a 96-well plate seeded with RSMCs and HCAECs, with 50 μL per well. The plate was incubated for 1–3 h in the incubator. Then, 50 μL of each prepared test compound was added to the plate. The IC50 values were measured using GloMax at 1, 5, 10, 30, and 60 min after the addition of the test compounds, and cytotoxicity was evaluated.
# [2] = test system: human coronary artery endothelial cells (HCAECs); assay: cells
# Description: Human coronary artery ECs were cultured in a collagen-coated dish (AGC TECHNO GLASS Co., Shizuoka, Japan) in EBM-2 (CC-3156, Lonza, Besel, Switzerland) containing Supplements and Growth Factors (CC-4176, Lonza, Besel, Switzerland). The cells were cultured at 37 °C in a 5% CO2 incubator. The medium was changed every three days until the adherent cell monolayer reached 70–80% subconfluence. Subsequently, cells were detached from the dish using Accutase. The cell suspension was diluted with medium, adjusted to a concentration of 5 × 10^4 cells/mL, and seeded into a 96-well plate. The dish was incubated for two days at 37 °C in a 5% CO2 incubator. En ECs at passages 5–6 were used, and five 96-well plates were prepared.
# as §1
# [3] = design: method as in PMID 25357051; conditions: cited from earlier work
# rat abdominal aorta [4] = assay: Wire myograph vasodilation of norepinephrine-contracted rat abdominal aorta rings; conditions: for concentration achieving maximal vasodilation effect (approximately 100% relaxation): 10 min after administration, contraction induced by 5 μM norepinephrine
# Description: Consistent with our previous study, we applied a 1 gram-force (gf) load to approximately 1 mm cross-sectional slices of the rat abdominal aorta. Subsequently, we induced contraction by adding 5 μM norepinephrine. Various vasodilators were then added, and the concentration at which the vessels relaxed back to 1 gf was considered the concentration required for 100% relaxation.
# A wire myograph system (Bio Research Co., Osaka, Japan) was used, as previously reported by Ogawa et al.. The rat abdominal aortae were cut into rings and manipulated using two L-shaped hooks. One hook was fixed, and the other was connected to an amplifier to measure the force exerted on the pulled vessel in grams. The rats were deeply anesthetized, and the abdominal aorta was dissected. The excised vessels were immersed in Ringer solution (NaCl 118 mM, KCl 4.7 mM, CaCl2/2H2O 2.5 mM, MgSO4/7H2O 1.2 mM, KH2PO4 1.2 mM, NaHCO3 25 mM, C6H12O6 11 mM, Na2EDTA 0.5 mM). The rat aorta was then sliced into approximately 1 mm-wide rings and hooked onto L-shaped hooks. The chamber was filled with 3 mL of Krebs-Ringer solution, and a gas mixture of 95% O2 and 5% CO2 was bubbled through. The chamber was maintained at 37 °C.
# Once the wire myograph system was initiated, the wire was moved, and a load was exerted on the hook-attached chamber. The applied tensile force, amplified by a transducer and PowerLab (ADInstruments, Bella Vista, New South Wales, Australia), was continuously recorded as gram force using LabChart (ADInstruments, Bella Vista, New South Wales, Australia). The hook is pulled to apply a load of up to 1 gf. A resting period of approximately 10 min was required for the gradual relaxation of the vessel under tension from the hook. When relaxation reached a plateau, norepinephrine was added to the solution to achieve a final concentration of 5 μM. This causes the vessel to contract, increasing the load on the artery and surpassing 1 gf on the myograph recording. […] The reduction in load on the vessel in terms of gf was assessed to determine the relaxation rate and concentration (Figure 4). […]
# [5] = cited from earlier work
# [6] = 4% lidocaine administered locally; humans; cited from earlier work
# [7] = test system: NE-dependent contractions; conditions: cited from earlier work
# rat abdominal aorta [8] = conditions: cited from earlier work
# [9] = 1% lidocaine; cited from earlier work
# [10] = test system: rat testicular vasculature; design: method as in doi:10.1007/BF00585581; conditions: local administration after epinephrine-induced vasoconstriction; cited from earlier work
# [11] = Rattus norvegicus, 1 min, read-out: IC50 (cell viability), RSMCs, 1 min after addition
# [12] = Rattus norvegicus, 5 min, read-out: IC50 (cell viability), RSMCs, 5 min after addition
# [13] = Rattus norvegicus, 10 min, read-out: IC50 (cell viability), RSMCs, 10 min after addition
# [14] = Rattus norvegicus, 0.5 h, read-out: IC50 (cell viability), RSMCs, 30 min after addition
# [15] = Rattus norvegicus, 1 h, read-out: IC50 (cell viability), RSMCs, 60 min after addition
# [16] = read-out: IC50 (cell viability), RSMCs, 1 min after addition
# [17] = Homo sapiens, Endothelial cell, 1 min, read-out: IC50 (cell viability)
# [18] = Homo sapiens, Endothelial cell, 5 min, read-out: IC50 (cell viability)
# [19] = Homo sapiens, Endothelial cell, 10 min, read-out: IC50 (cell viability)
# [20] = Homo sapiens, Endothelial cell, 0.5 h, read-out: IC50 (cell viability)
# [21] = Homo sapiens, Endothelial cell, 1 h, read-out: IC50 (cell viability)
SMILES,"IC50 [1, 11] [µM]","IC50 [1, 12] [µM]","IC50 [1, 13] [µM]","IC50 [1, 14] [µM]","IC50 [1, 15] [µM]","IC50 [1, 16] [µM]","IC50 [2, 17] [µM]","IC50 [2, 18] [µM]","IC50 [2, 19] [µM]","IC50 [2, 20] [µM]","IC50 [2, 21] [µM]",concentration achieving maximal vasodilation effect (approximately 100% relaxation) (rat abdominal aorta [4]) [mM],cellular toxicity [1],cellular toxicity [2],also measured
"COc1ccc(Cc2nccc3cc(OC)c(OC)cc23)cc1OC [Papaverine, papaverine]",100,118,13.5,15.9,1.5,97,56,4.04,4.29,5,6.48,0.18,,,"IC50 ([1]; read-out: IC50 (cell viability), RSMCs, 1 min after addition, listed as papaverine hydrochloride): 97 µM; IC50 ([1]; read-out: IC50 (cell viability), RSMCs, 60 min after addition): 1.46 µM; pH of clinically used concentrations [3]: 3–4.5; time until effects become evident ([5]; after local administration): 1 to 5 min"
"CCN(CC)CC(=O)Nc1c(C)cccc1C [Lidocaine, lidocaine]",55300,27900,16700,10100,7100,55300,24400,16800,13500,10300,7640,,,,"IC50 expressed as percent concentration ([1]; SMC, 1-min post-dose): 1.58%; IC50 ([1]; read-out: IC50 (cell viability), RSMCs, 5 min after addition): 27900 µM; IC50 ([1]; read-out: IC50 (cell viability), RSMCs, 10 min after addition): 16700 µM; peak concentration measured in peripheral blood [6]: 1.5 µg/mL; IC50 expressed as percent concentration ([2]; EC, 1-min post-dose): 0.70%; high concentrations relieving NE-dependent contractions and increasing blood flow [7]: 4.5 to 15 mM; low concentrations causing vasoconstriction [7]: 15 to 1500 µM; relaxation (rat abdominal aorta [8]; 1% lidocaine for 10 min): approximately 100%; concentration achieving maximal vasodilation effect (approximately 100% relaxation) (rat abdominal aorta [8]; 10 min after administration, 5 μM norepinephrine, lidocaine data from previous research): 35 mM; osmotic pressure [9]: 282 mOsm/L; duration of antispasmodic effect [5]: 10 to 20 min; onset of antispasmodic effect [5]: 45 to 90 s"
"Cc1ccc(N(CC2=NCCN2)c2cccc(O)c2)cc1 [Phentolamine, phentolamine]",,,,,,,,,,,,,No cellular toxicity was observed,No cellular toxicity was observed,onset of the effect [10]: ≤ 2 min; sustained effect [10]: up to 20 min
"O=[N+]([O-])OCC(CO[N+](=O)[O-])O[N+](=O)[O-] [Nitroglycerine, nitroglycerin]",,,,130,109,,,,,,,0.022,,,"IC50 ([1]; read-out: IC50 (cell viability), RSMCs, 30 min after addition): 134 µM; IC50 ([2]; Homo sapiens, Endothelial cell, 10 min, read-out: IC50 (cell viability), HCAECs, 10 min after addition): 35 µM; IC50 ([2]; Homo sapiens, Endothelial cell, 0.5 h, read-out: IC50 (cell viability), HCAECs, 30 min after addition): 38 µM; IC50 ([2]; Homo sapiens, Endothelial cell, 1 h, read-out: IC50 (cell viability), HCAECs, 60 min after addition): 38.8 µM; IC50 ([2]; read-out: IC50 (cell viability), HCAECs, 10 min after addition): 35.1 µM; relaxation (rat abdominal aorta [4]; at the investigated concentrations, 10 min, 5 μM norepinephrine): approximately 50%"
"Cc1[nH]c(=O)c(C#N)cc1-c1ccc2nccn2c1 [Olprinone, olprinone]",,,,,,,,,,,,,No cellular toxicity was observed,No cellular toxicity was observed,

# From paper PMC10341634, “Vasodilating Effects of Antispasmodic Agents and Their Cytotoxicity in Vascular Smooth Muscle Cells and Endothelial Cells—Potential Application in Microsurgery” (International Journal of Molecular Sciences, 2023)
